Experimental data reported in patent publication US10023592B2, “Bromodomain inhibitors” (Celgene Quanticel Research, Inc., priority 2013, dated 2018).

Key:
BRD4(BD1) = BRD4(BD1) (Homo sapiens (Human), UniProt O60885); assay: In vitro enzyme inhibition assay (BRD4 AlphaScreen); type: binding; conditions: in vitro enzyme inhibition assay
How it was run: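 AlphaScreen proximity readout, using streptavidin donor and Ni-chelate acceptor beads at 5 μg/mL final, monitors biotin-H4 tetraacetylated peptide interaction with purified His-tagged BRD4.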

[1] = tested on: Raji, human Burkitts lymphoma cells; assay: Cell-MTS proliferation assay, Raji; type: cell-based; conditions: Homo sapiens; Cell-MTS proliferation, Raji cells, 168 hr
How it was run: (§1)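 Seven-day colorimetric MTS assay; compound at 11 concentrations from 100 μM down to 2.0 nM final, added a day after plating. IC50 from OD490 normalised to DMSO controls.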

[2] = tested on: HL-60, human proleukemia cells; assay: Cell-MTS proliferation assay, HL-60; type: cell-based; conditions: Homo sapiens; Cell-MTS proliferation, HL-60 cells, 168 hr
How it was run: as §1

[3] = tested on: NCI-H460, human non-small cell lung cancer cells; assay: Cell-MTS proliferation assay, NCI-H460; type: cell-based; conditions: Homo sapiens; Cell-MTS proliferation, NCI-H460 cells, 168 hr
How it was run: as §1

SMILES	IC50 (BRD4(BD1)) [nM]	IC50 [1] [nM]	IC50 [2] [nM]	IC50 [3] [nM]
Cn1cc(-c2cccc(NS(C)(=O)=O)c2)cc(O)c1=O [Example 467, N-[3-(5-hydroxy-1-methyl-6-oxopyridin-3-yl)phenyl]methanesulfonamide]	500 to 5000	> 5000	> 5000	> 5000
CCS(=O)(=O)Nc1ccc(Oc2ccc(F)cc2F)c(-c2cc(C)c(=O)n(C)c2)c1 [Example 472, N-[4-(2,4-difluorophenoxy)-3-(1,5-dimethyl-6-oxopyridin-3-yl)phenyl]ethanesulfonamide]	< 500	< 500	< 500	> 5000
CCS(=O)(=O)c1ccc(NCC2CC2)c(-c2ccc(=O)n(C)c2)c1 [Example 473, 5-[2-(cyclopropylmethylamino)-5-ethylsulfonylphenyl]-1-methylpyridin-2-one]	< 500	500 to 5000	< 500	> 5000
CN(C)c1cc(-c2cc(S(C)(=O)=O)ccc2OCC2CC2)cn(C)c1=O [Example 474, 5-[2-(cyclopropylmethoxy)-5-methylsulfonylphenyl]-3-(dimethylamino)-1-methylpyridin-2-one]	< 500	< 500	< 500	> 5000
Cc1cc(-c2cc(S(C)(=O)=O)ccc2OCC2CC2)cn(C)c1=O [Example 476, 5-[2-(cyclopropylmethoxy)-5-methylsulfonylphenyl]-1,3-dimethylpyridin-2-one]	< 500	500 to 5000	< 500	> 5000
Cc1cc(=O)n(C)cc1-c1cc(S(C)(=O)=O)ccc1OCC1CC1 [Example 477, 5-[2-(cyclopropylmethoxy)-5-methylsulfonylphenyl]-1,4-dimethylpyridin-2-one]	< 500	500 to 5000	< 500	> 5000
Cc1cc(-c2cc(S(C)(=O)=O)cc3c2OC(C)C3)cn(C)c1=O (stereo not shown) [Example 486, 1,3-dimethyl-5-(2-methyl-5-methylsulfonyl-2,3-dihydro-1-benzofuran-7-yl)pyridin-2-one]	500 to 5000	> 5000	500 to 5000	> 5000
CCS(=O)(=O)Cc1ccc(OCC(F)(F)F)c(-c2cn(C)c(=O)c3ccccc23)c1 [Example 487, 4-[5-(ethylsulfonylmethyl)-2-(2,2,2-trifluoroethoxy)phenyl]-2-methylisoquinolin-1-one]	< 500	< 500	< 500	> 5000

Further lines, results first:

IC50 (BRD4(BD1)) [nM]	IC50 [1] [nM]	IC50 [2] [nM]	IC50 [3] [nM]	SMILES
< 500	< 500	< 500	> 5000	CCS(=O)(=O)c1ccc(NCC2CC2)c(-c2cc(C)c(=O)n(C)c2)c1 [Example 465, 5-[2-(cyclopropylmethylamino)-5-ethylsulfonylphenyl]-1,3-dimethylpyridin-2-one]
< 500	< 500	< 500	> 5000	CCS(=O)(=O)c1ccc(OCC2CC2)c(-c2cn(C)c(=O)cc2C)c1 [Example 466, 5-[2-(cyclopropylmethoxy)-5-ethylsulfonylphenyl]-1,4-dimethylpyridin-2-one]
< 500	> 5000	500 to 5000	> 5000	Cn1cc(-c2cc(S(C)(=O)=O)ccc2NCC2CC2)ccc1=O [Example 468, 5-[2-(cyclopropylmethylamino)-5-methylsulfonylphenyl]-1-methylpyridin-2-one]
< 500	< 500	< 500	> 5000	CCOc1ccc(S(=O)(=O)CC)cc1-c1cc(N(C)C)c(=O)n(C)c1 [Example 469, 3-(dimethylamino)-5-(2-ethoxy-5-ethylsulfonylphenyl)-1-methylpyridin-2-one]
< 500	< 500	< 500	500 to 5000	Cn1cc(-c2cc(CS(C)(=O)=O)ccc2Oc2ccc(F)cc2F)ccc1=O [Example 470, 5-[2-(2,4-difluorophenoxy)-5-(methylsulfonylmethyl)phenyl]-1-methylpyridin-2-one]
